Laboratory results: US20090176817A1, “Method of Treatment of Diarrhea-Predominant Irritable Bowel Syndrome in a Subject” (priority 2005, published 2009)
Marks after values point to notes of the source that are not given here.

Assays:
[1] = Study S241.1.111: relative bioavailability and food effect, 2 mg tablet vs oral solution; type: in vivo, human; conditions: for AUC(0-t): AUC(0-last); for half-life: T½
Protocol: Subjects were randomized to receive a cilansetron 2 mg tablet after an overnight fast, a cilansetron 2 mg tablet after a high-fat breakfast, and a cilansetron 2 mg oral solution after an overnight fast during the three treatment periods, with a 7-day washout between periods. Serial blood sampling was performed up to 24 hours following each treatment, and plasma pharmacokinetics parameters for cilansetron and its metabolites, (4R)-hydroxy cilansetron and (4S)-hydroxy cilansetron, were estimated. FIG. 4, FIG. 5, and FIG. 6 present mean plasma concentration-time profiles for cilansetron and its metabolites following treatment with the cilansetron tablet and oral solution. Table 2.7.1.2.2 presents descriptive statistics for the pharmacokinetic parameters of cilansetron and its metabolites for the tablet and oral solution, and the results of statistical comparisons between treatments (tablet versus solution).
Subjects were randomized to receive a cilansetron 2 mg tablet after an overnight fast, a cilansetron 2 mg tablet after a high-fat breakfast, and a cilansetron 2 mg oral solution after an overnight fast during the three treatment periods, with a 7-day washout between periods. Serial blood sampling was performed up to 24 hours following each treatment and plasma pharmacokinetics parameters for cilansetron and its metabolites, (4R)-hydroxy cilansetron and (4S)-hydroxy cilansetron, were estimated. FIG. 7, FIG. 8, and FIG. 9 present mean plasma concentration-time profiles for cilansetron and its metabolites following treatment with the cilansetron tablet under fasted conditions and following a high-fat meal. Table 2.7.1.2.4 presents descriptive statistics for the pharmacokinetic parameters of cilansetron and its metabolites for the tablet under fed and fasted conditions, and the results of statistical comparisons between treatments (fed versus fasted).

[2] = Study S.241.1.109: single and multiple dose pharmacokinetics 2 mg TID; type: in vivo, human
Protocol: In an open-label, randomized, parallel-group study in 36 healthy, male and female subjects (19-45 years), subjects received a 2 mg single dose of cilansetron on Day 1 and 2 mg TID on Days 2-7. The morning doses on Days 1 and 7 were administered immediately after a standard breakfast. Serial blood samples for the measurement of single-dose and steady-state pharmacokinetics of cilansetron and its main metabolites, (4R)-hydroxy cilansetron and (4S)-hydroxy cilansetron, were collected on Day 1 (single dose) up to 24 hours postdose and on Day 7 (multiple dose) up to 8 hours postdose.

human P-glycoprotein = molecular target: T1, human P-glycoprotein (Homo sapiens, UniProt P08183); assay: Study K.241.6026: in vitro transport by P-glycoprotein in PK 1 LLC MDR cells; type: in vitro ADME
T1 construct: expressed in transfected cells; host or cells: PK 1 LLC MDR cells (LLC-PK1 porcine kidney cells expressing human MDR1, by own knowledge)
T1 sequence (P08183 whole entry): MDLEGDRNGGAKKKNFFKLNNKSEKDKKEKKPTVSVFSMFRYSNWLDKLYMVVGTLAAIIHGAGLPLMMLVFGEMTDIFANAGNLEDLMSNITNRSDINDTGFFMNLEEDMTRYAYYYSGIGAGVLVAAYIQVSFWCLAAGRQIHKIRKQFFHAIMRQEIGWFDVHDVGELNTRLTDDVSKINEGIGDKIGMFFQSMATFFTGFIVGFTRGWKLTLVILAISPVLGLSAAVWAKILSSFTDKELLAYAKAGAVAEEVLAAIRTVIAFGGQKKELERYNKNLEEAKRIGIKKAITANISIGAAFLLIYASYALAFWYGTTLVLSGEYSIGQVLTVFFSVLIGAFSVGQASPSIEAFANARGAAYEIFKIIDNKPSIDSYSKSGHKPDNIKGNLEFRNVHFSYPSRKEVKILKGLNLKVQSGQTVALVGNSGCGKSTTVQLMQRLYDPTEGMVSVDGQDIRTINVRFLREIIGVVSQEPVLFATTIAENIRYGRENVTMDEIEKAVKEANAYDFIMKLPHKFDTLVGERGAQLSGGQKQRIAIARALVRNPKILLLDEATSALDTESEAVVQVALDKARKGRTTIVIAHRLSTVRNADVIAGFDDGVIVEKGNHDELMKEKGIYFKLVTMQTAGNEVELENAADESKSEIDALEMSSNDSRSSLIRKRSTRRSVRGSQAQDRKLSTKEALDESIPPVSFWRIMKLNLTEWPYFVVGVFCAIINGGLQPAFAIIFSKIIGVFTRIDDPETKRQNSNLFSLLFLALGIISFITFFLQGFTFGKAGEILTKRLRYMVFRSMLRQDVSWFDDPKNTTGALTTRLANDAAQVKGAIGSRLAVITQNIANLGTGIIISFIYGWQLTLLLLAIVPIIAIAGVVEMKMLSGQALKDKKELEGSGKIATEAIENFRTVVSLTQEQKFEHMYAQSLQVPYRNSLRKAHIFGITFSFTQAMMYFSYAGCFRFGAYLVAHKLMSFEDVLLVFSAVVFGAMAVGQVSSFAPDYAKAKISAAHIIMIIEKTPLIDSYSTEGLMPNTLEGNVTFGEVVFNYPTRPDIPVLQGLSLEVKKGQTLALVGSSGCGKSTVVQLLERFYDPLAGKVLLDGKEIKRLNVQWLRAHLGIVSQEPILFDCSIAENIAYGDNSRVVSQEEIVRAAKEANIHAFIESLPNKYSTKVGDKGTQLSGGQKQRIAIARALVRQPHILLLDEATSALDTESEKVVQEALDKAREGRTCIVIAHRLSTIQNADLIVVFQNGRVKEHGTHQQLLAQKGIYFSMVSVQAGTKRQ

human 5-HT3 receptor = molecular target: T2, human 5-HT3 receptor (Homo sapiens, UniProt P46098); assay: 5-HT3 receptor binding
T2 sequence (P46098 24-478): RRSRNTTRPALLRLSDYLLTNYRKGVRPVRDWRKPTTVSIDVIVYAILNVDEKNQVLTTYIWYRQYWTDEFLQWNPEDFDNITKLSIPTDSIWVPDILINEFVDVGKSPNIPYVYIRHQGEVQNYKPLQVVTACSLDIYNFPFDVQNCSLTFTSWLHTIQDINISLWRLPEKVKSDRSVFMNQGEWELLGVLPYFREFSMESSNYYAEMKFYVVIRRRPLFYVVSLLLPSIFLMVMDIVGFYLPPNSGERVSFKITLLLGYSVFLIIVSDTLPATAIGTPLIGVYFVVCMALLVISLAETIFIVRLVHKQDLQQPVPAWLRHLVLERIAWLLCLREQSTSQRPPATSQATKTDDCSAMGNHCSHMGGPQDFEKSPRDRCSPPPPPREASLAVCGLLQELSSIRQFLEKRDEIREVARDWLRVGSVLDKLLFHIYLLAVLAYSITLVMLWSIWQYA

[3] = Study S.241.1.109: interaction with paroxetine 20 mg QD; type: in vivo, human; conditions: for AUC(0-τ) / Cmax / Tmax: steady state; for AUC(0-τ): AUC(0-8); for AUC(0-τ) / Cmax: arith. mean; for Tmax: median
Protocol: In an open-label, randomized, parallel-group study in three groups of 12 healthy, male and female subjects (aged 19 to 45 years), subjects received a 2 mg single dose of cilansetron on Day 1, 2 mg TID on Days 2-13, and a 2 mg single dose on Day 14. […] All morning doses of cilansetron and enzyme inhibitors were administered immediately after a standard breakfast. […] For each treatment group, log-transformed cilansetron AUC(0-τ) and Cmax values on Day 14 (cilansetron+enzyme inhibitor) were compared statistically versus values on Day 7 (cilansetron alone).
FIG. 50, FIG. 51, and FIG. 52 present geometric mean steady-state plasma concentration-time profiles for cilansetron and its 4-hydroxy metabolites in the absence and presence of concomitant paroxetine. […] These increases in exposure are not clinically significant.

[4] = 2 mg tablet, fasted, single dose
[5] = Cilansetron 2 mg TID + Paroxetine 20 mg QD
[6] = Cilansetron 2 mg TID alone (paroxetine group)
[7] = cilansetron + paroxetine / cilansetron alone, ANOVA of log-transformed data
[8] = both sexes, human, in vivo, 2 mg
[9] = both sexes, human, in vivo, 2 mg, Cmax
[10] = both sexes, human, in vivo, po, 2 mg

Cc1nccn1CC1CCc2c(c3cccc4c3n2CC[C@@H]4O)C1=O (stereo partly drawn) [(4S)-hydroxy cilansetron]
AUC(0-inf) ([1]; 2 mg oral solution, fasted): 7.20 (23) ng · h/mL
AUC(0-last) ([1]; 2 mg oral solution, fasted): 5.82 (24) ng · h/mL
Cmax ([1]; 2 mg oral solution, fasted): 0.607 (19) ng/mL
T½ ([1]; 2 mg oral solution, fasted): 7.13 (25) h
Tmax ([1]; 2 mg oral solution, fasted, median): 3.00 h
AUC(0-inf) [1, 4]: 7.31 (22) ng · h/mL
AUC(0-last) [1, 4]: 5.98 (22) ng · h/mL
Cmax [1, 4]: 0.637 (17) ng/mL
T½ [1, 4]: 7.26 (32) h
Tmax ([1]; 2 mg tablet, fasted, median): 3.00 h
AUC(0-inf) ([1]; 2 mg tablet, fed): 7.54 (19) ng · h/mL
Cmax ([1]; 2 mg tablet, fed): 0.602 (17) ng/mL
T½ ([1]; 2 mg tablet, fed): 7.94 (34) h
AUC(0-last) ([1]; 2 mg tablet, fed (high-fat breakfast)): 6.10 (19) ng · h/mL
Tmax ([1]; 2 mg tablet, fed, median): 4.00 h
AUC(0-τ) ([2]; 2 mg TID, Day 7): 7.91 (19) ng · h/mL
Cmax ([2]; 2 mg TID, Day 7): 1.25 (18) ng/mL
AUC(0-inf) ([2]; 2 mg single dose, Day 1): 7.42 (20) ng · h/mL
AUC(0-τ) ([2]; 2 mg single dose, Day 1): 3.26 (19) ng · h/mL
Cmax ([2]; 2 mg single dose, Day 1): 0.605 (22) ng/mL
T½ ([2]; 2 mg single dose, Day 1): 7.48 (26) h
AUC accumulation ratio Day 7/Day 1 ([2]; AUC(0-τ)): 239^d %
Linearity Ratio ([2]; AUC(0-τ) Day 7 to AUC(0-inf) Day 1): 108%
Tmax ([2]; Day 1, median (min, max)): 4.00 (1.50, 6.00)^b h
Accumulation following TID dosing (mean increase) ([2]; Day 7:Day 1, AUC(0-τ) and Cmax): 105-139%
Tmax ([2]; Day 7, median (min, max)): 3.00 (1.75, 4.00)^b h
Time of peak concentration ([2]; after cilansetron dosing): 3 to 4 h
half-life ([2]; approximate mean): ~7.5 h
AUC(0-τ) (Day 7) to AUC(0-inf) (Day 1) mean ratio ([2]; human, in vivo): 1.08
Cmax accumulation ratio Day 7/Day 1 ([2]; human, in vivo): 205^e %
Accumulation following TID dosing ([2]; in vivo): greater than 2 fold
Membrane Passage (human P-glycoprotein; arithmetic mean percentages transported, 3 hours of incubation): 13%
pKi (human 5-HT3 receptor): 8.0
AUC(0-τ) [3, 5]: 7.62 ng·h/mL
Cmax [3, 5]: 1.23 ng/mL
Tmax [3, 5]: 3.00 h
AUC(0-τ) [3, 6]: 7.97 ng·h/mL
Cmax [3, 6]: 1.22 ng/mL
Tmax [3, 6]: 3.00 h
AUC(0-τ) Ratio (Treatment B/A) [3, 7]: 99%
Cmax Ratio (Treatment B/A) [3, 7]: 105%

Cc1nccn1C[C@H]1CCc2c(c3cccc4c3n2CCC4)C1=O [Cilansetron, (R)-(−)-4,5,6,8,9,10-hexahydro-10-[(2-methyl-1H-imidazol-1-yl)methyl]-11H-pyrido-[3,2,1-jk]-carbazol-11-one]
AUC(0-inf) ([1]; both sexes, human, in vivo, 2 mg, AUC(0-inf)): 22.8 ng·h/mL
AUC(0-t) [1, 8]: 22.4 ng·h/mL
Cmax [1, 9]: 8.24 ng/mL
Tmax ([1]; both sexes, human, in vivo, 2 mg, Tmax): 1 h
half-life [1, 8]: 1.42 h
AUC(0-inf) ([1]; both sexes, human, in vivo, po, 2 mg, AUC(0-inf)): 20.7 ng·h/mL
AUC(0-t) [1, 10]: 20.2 ng·h/mL
Cmax ([1]; both sexes, human, in vivo, po, 2 mg, Cmax): 7.55 ng/mL
Tmax ([1]; both sexes, human, in vivo, po, 2 mg, Tmax): 1 h
half-life [1, 10]: 1.48 h
Intrasubject % CV for AUC ([1]; both, human, in vivo): 19.2%
Intrasubject % CV for Cmax ([1]; both, human, in vivo): 24.5%
AUC(0-inf) increase under fed conditions ([1]; both, human, in vivo, 2 mg): 20%
AUC(0-inf) ratio fed/fasted ([1]; both, human, in vivo, 2 mg): 121%
Cmax ratio fed/fasted ([1]; both, human, in vivo, 2 mg): 101%
AUC(0-inf) ratio tablet/oral solution ([1]; both, human, in vivo, po): 99%
Cmax ratio tablet/oral solution ([1]; both, human, in vivo, po): 108%
Tmax ([2]; both sexes, human, in vivo): 1.75 h
Tmax at 7 day ([2]; both sexes, human, in vivo): 1.5 h
AUC(0-inf) [2, 8]: 22.3 ng·h/mL
AUC ([2]; both sexes, human, in vivo, 2 mg, AUC(0-τ)): 21 ng·h/mL
Cmax [2, 9]: 6.63 ng/mL
Cmax at 7 day [2, 9]: 7.55 ng/mL
Cmax ([2]; both sexes, human, in vivo, 2 mg, Plasma Cmax): 6 to 7 ng/mL
half-life ([2]; both sexes, human, in vivo, 2 mg, T½): 1.6 h
half-life ([2]; both sexes, human, in vivo, Half-life): 1 to 2 h
AUC accumulation ratio Day 7/Day 1 ([2]; both, human, in vivo): 105^d %
Cmax accumulation ratio Day 7/Day 1 ([2]; both, human, in vivo): 110^e %
Linearity Ratio ([2]; both, human, in vivo): 99%
AUC(0-τ) ([2]; both, human, in vivo, 2 mg): 23.5 (44) ng · h/mL
Intersubject % CV for AUC and Cmax ([2]; both, human, in vivo, 2 mg): 44-56%
T½ ([2]; both, human, in vivo, 2 mg): 1.64 (18) h
Concentration required to saturate P-glycoprotein in vitro (human P-glycoprotein; human): above 1000 ng/mL
Membrane Passage (human P-glycoprotein; human, 3 h): 33%
P-gp Factor (human P-glycoprotein; human, 3 h): 3
pKi (human 5-HT3 receptor): 9.4
Mean AUC increase with paroxetine ([3]; both, human, in vivo): 20%
Mean Cmax increase with paroxetine ([3]; both, human, in vivo): 36%
Effect of paroxetine ([3]; in vivo): no significant effect
